# Source: PubChem BioAssay AID2060605 (Molecular Pharmacology Branch, DTP, NCI, 2025)
# Several values for one entry are separate records, joined by “and”; a condition that tells them apart may be missing. Equal values may be shown once.
# System: 947758-054-R-J2-PDC spheroid growth, percent test/control
# Assay: Anticancer human tumor 947758-054-R-J2-PDC patient-derived colon adenocarcinoma cell line growth inhibition [CLK]
# Settings: spheroids with HUVEC and MSC; for viability, T/C: stronger effect = lower value
# In short: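 Multi-cell-type spheroids combined patient-derived tumor cells with HUVEC endothelial cells and human mesenchymal stem cells. Paired agents were dosed in half-log steps down from about clinical Cmax, or from 10 microM where Cmax was unknown.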
# [1] = curve of first compound, second compound 0.0316 µM
# [2] = curve of first compound, second compound 0.1 µM
# [3] = curve of first compound, second compound 0.316 µM
# [4] = curve of first compound, second compound 1 µM
# [5] = curve of first compound, second compound 3.16 µM
# [6] = curve of first compound, second compound 10 µM
# 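Further: spheroids exposed to compounds for one week before readout.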
# 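Wherever viability, T/C is given: 100% = DMSO vehicle control wells.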
smiles,measurement,setting,value
C=CC(=O)Nc1cc(Nc2nccc(-c3cn(C)c4ccccc34)n2)c(OC)cc1N(C)CCN(C)C + CN1CCN(c2cc(C(=O)Nc3cc4cc(-c5cnn(C)c5)ccc4cn3)ccn2)CC1,IC50,[1],> 300 nM
same,IC50,[2],> 300 nM
same,IC50,[3],< 0.949 nM
same,IC50,[4],< 0.949 nM
same,IC50,[5],< 0.949 nM
same,IC50,[6],< 0.949 nM
same,"viability, T/C","second compound 0.0316 µM, first compound 0.000949 µM",102%
same,"viability, T/C","second compound 0.0316 µM, first compound 0.003 µM",111%
same,"viability, T/C","second compound 0.0316 µM, first compound 0.00949 µM",100%
same,"viability, T/C","second compound 0.0316 µM, first compound 0.03 µM",81.4%
same,"viability, T/C","second compound 0.0316 µM, first compound 0.0949 µM",116%
same,"viability, T/C","second compound 0.0316 µM, first compound 0.3 µM",137%
same,"viability, T/C","second compound 0.1 µM, first compound 0.000949 µM",157%
same,"viability, T/C","second compound 0.1 µM, first compound 0.003 µM",163%
same,"viability, T/C","second compound 0.1 µM, first compound 0.00949 µM",152%
same,"viability, T/C","second compound 0.1 µM, first compound 0.03 µM",179%
same,"viability, T/C","second compound 0.1 µM, first compound 0.0949 µM",120%
same,"viability, T/C","second compound 0.1 µM, first compound 0.3 µM",106%
same,"viability, T/C","second compound 0.316 µM, first compound 0.000949 µM",4.91%
same,"viability, T/C","second compound 0.316 µM, first compound 0.003 µM",4.6%
same,"viability, T/C","second compound 0.316 µM, first compound 0.00949 µM",2.55%
same,"viability, T/C","second compound 0.316 µM, first compound 0.03 µM",3.23%
same,"viability, T/C","second compound 0.316 µM, first compound 0.0949 µM",2.33%
same,"viability, T/C","second compound 0.316 µM, first compound 0.3 µM",3.21%
same,"viability, T/C","second compound 1 µM, first compound 0.000949 µM",0.14%
same,"viability, T/C","second compound 1 µM, first compound 0.003 µM",0.99%
same,"viability, T/C","second compound 1 µM, first compound 0.00949 µM",0.15%
same,"viability, T/C","second compound 1 µM, first compound 0.03 µM",0.13%
same,"viability, T/C","second compound 1 µM, first compound 0.0949 µM",0.11%
same,"viability, T/C","second compound 1 µM, first compound 0.3 µM",0.14%
same,"viability, T/C","second compound 3.16 µM, first compound 0.000949 µM",0.4%
same,"viability, T/C","second compound 3.16 µM, first compound 0.003 µM",1.42%
same,"viability, T/C","second compound 3.16 µM, first compound 0.00949 µM",1.1%
same,"viability, T/C","second compound 3.16 µM, first compound 0.03 µM",0.23%
same,"viability, T/C","second compound 3.16 µM, first compound 0.0949 µM",2.07%
same,"viability, T/C","second compound 3.16 µM, first compound 0.3 µM",1.52%
same,"viability, T/C","second compound 10 µM, first compound 0.000949 µM",0.82%
same,"viability, T/C","second compound 10 µM, first compound 0.003 µM",0.35%
same,"viability, T/C","second compound 10 µM, first compound 0.00949 µM",1%
same,"viability, T/C","second compound 10 µM, first compound 0.03 µM",1.25%
same,"viability, T/C","second compound 10 µM, first compound 0.0949 µM",0.32%
same,"viability, T/C","second compound 10 µM, first compound 0.3 µM",0.26%
C#Cc1c(F)ccc2cc(O)cc(-c3ncc4c(N5CC6CCC(C5)N6)nc(OCC56CCCN5CC(F)C6)nc4c3F)c12 (stereo not drawn),"viability, T/C",compound 0.0316 µM,97% and 82.7%
same,"viability, T/C",compound 0.1 µM,90.4% and 83.7%
same,"viability, T/C",compound 0.316 µM,100% and 88%
same,"viability, T/C",compound 1 µM,80% and 85.2%
same,"viability, T/C",compound 3.16 µM,87.3% and 82.6%
same,"viability, T/C",compound 10 µM,87.5% and 88%
same,IC50,curve of compound,> 10000 nM
NC(=O)C(=Cn1cnc(-c2cc(C(F)(F)F)cc(C(F)(F)F)c2)n1)c1cncnc1,"viability, T/C",compound 0.00949 µM,101% and 94.5%
same,"viability, T/C",compound 0.03 µM,91% and 92.6%
same,"viability, T/C",compound 0.0949 µM,59.9% and 62.1%
same,"viability, T/C",compound 0.3 µM,28.5% and 28.9%
same,"viability, T/C",compound 0.949 µM,10.5% and 10%
same,"viability, T/C",compound 3 µM,2.27% and 3.82%
same,IC50,curve of compound,140 nM and 149 nM
COc1c(OCCCN2CCOCC2)ccc2c3n(c(=NC(=O)c4cnc(N)nc4)nc12)CCN3 + CN1CCN(c2cc(C(=O)Nc3cc4cc(-c5cnn(C)c5)ccc4cn3)ccn2)CC1,IC50,[1],184 nM
same,IC50,[2],29 nM
same,IC50,[3],< 3.16 nM
same,IC50,[4],< 3.16 nM
same,IC50,[5],< 3.16 nM
same,IC50,[6],< 3.16 nM
same,"viability, T/C","second compound 0.0316 µM, first compound 0.00316 µM",157%
same,"viability, T/C","second compound 0.0316 µM, first compound 0.01 µM",133%
same,"viability, T/C","second compound 0.0316 µM, first compound 0.0316 µM",90.8%
same,"viability, T/C","second compound 0.0316 µM, first compound 0.1 µM",75.6%
same,"viability, T/C","second compound 0.0316 µM, first compound 0.316 µM",28.7%
same,"viability, T/C","second compound 0.0316 µM, first compound 1 µM",18.1%
same,"viability, T/C","second compound 0.1 µM, first compound 0.00316 µM",188%
same,"viability, T/C","second compound 0.1 µM, first compound 0.01 µM",147%
same,"viability, T/C","second compound 0.1 µM, first compound 0.0316 µM",40.3%
same,"viability, T/C","second compound 0.1 µM, first compound 0.1 µM",33.4%
same,"viability, T/C","second compound 0.1 µM, first compound 0.316 µM",17.9%
same,"viability, T/C","second compound 0.1 µM, first compound 1 µM",10%
same,"viability, T/C","second compound 0.316 µM, first compound 0.00316 µM",7.04%
same,"viability, T/C","second compound 0.316 µM, first compound 0.01 µM",6.09%
same,"viability, T/C","second compound 0.316 µM, first compound 0.0316 µM",3.95%
same,"viability, T/C","second compound 0.316 µM, first compound 0.1 µM",2.44%
same,"viability, T/C","second compound 0.316 µM, first compound 0.316 µM",0.75%
same,"viability, T/C","second compound 0.316 µM, first compound 1 µM",1%
same,"viability, T/C","second compound 1 µM, first compound 0.00316 µM",0.16%
same,"viability, T/C","second compound 1 µM, first compound 0.01 µM",0.18%
same,"viability, T/C","second compound 1 µM, first compound 0.0316 µM",0.15%
same,"viability, T/C","second compound 1 µM, first compound 0.1 µM",0.1%
same,"viability, T/C","second compound 1 µM, first compound 0.316 µM",1.96%
same,"viability, T/C","second compound 1 µM, first compound 1 µM",1.55%
same,"viability, T/C","second compound 3.16 µM, first compound 0.00316 µM",0.48%
same,"viability, T/C","second compound 3.16 µM, first compound 0.01 µM",0.95%
same,"viability, T/C","second compound 3.16 µM, first compound 0.0316 µM",0.19%
same,"viability, T/C","second compound 3.16 µM, first compound 0.1 µM",0.15%
same,"viability, T/C","second compound 3.16 µM, first compound 0.316 µM",1.63%
same,"viability, T/C","second compound 3.16 µM, first compound 1 µM",2.02%
same,"viability, T/C","second compound 10 µM, first compound 0.00316 µM",0.31%
same,"viability, T/C","second compound 10 µM, first compound 0.01 µM",3.4%
same,"viability, T/C","second compound 10 µM, first compound 0.0316 µM",0.32%
same,"viability, T/C","second compound 10 µM, first compound 0.1 µM",0.27%
same,"viability, T/C","second compound 10 µM, first compound 0.316 µM",1.44%
same,"viability, T/C","second compound 10 µM, first compound 1 µM",1.28%
